# According to paper PMC12376128, “In vitro and In Vivo Drug Metabolism Analysis of BPI-460372 - A Covalent TEAD1/3/4 Inhibitor” (Current Drug Metabolism, 2025):
# Assays:
# [1] = system: CYP2C19; assay: Metabolic stability in HLMs with or without specific CYP inhibitor (ticlopidine 200 µM); format: in vitro ADME, human; details: HLMs 1 mg protein/mL, substrate 1 μM
# Description: Before starting the experiments, the HLMs were thawed gently on ice. Metabolic stability incubations were performed at 37 °C. […] The incubation process started with the addition of NADPH (1 mM final concentration) after a 5-minute preincubation period. The chemical inhibitors were as follows: a-naphthoflavone (2 µM) for CYP1A2, ticlopidine (20 µM) for 2B6, quercetin (20 µM) for CYP2C8, sulfaphenazole (20 µM) for CYP2C9, ticlopidine (200 µM) for CYP2C19, quinidine (20 µM) for CYP2D6, and ketoconazole (20 µM) for CYP3A [9]. Aliquots were maintained in acetonitrile containing internal standard (IS) at various time points, such as 0 min, 5 min, 10 min, 20 min, 30 min, and 60 min. All incubations were performed in triplicate, and the concentration in the supernatant was determined by liquid chromatography-tandem mass spectrometry (LC-MS/MS).
# (§1) The elimination rate constant k (min^-1) was obtained by linear regression from the natural logarithm of the […] of the parent drug and the incubation time. The inhibition rate was calculated using equation 1 [10]: […]
# [2] = system: CYP3A4; assay: Metabolic stability in HLMs with or without specific CYP inhibitor (ketoconazole); format: in vitro ADME, human; details: HLMs 1 mg protein/mL, substrate 1 μM, ketoconazole 20 µM
# Description: Before starting the experiments, the HLMs were thawed gently on ice. Metabolic stability incubations were performed at 37 °C. The incubations contained 100 mM phosphate buffer saline (PBS, pH 7.4), HLMs (1 mg protein·mL^-1), dimethyl sulfoxide (DMSO, blank control) or a selective CYP inhibitor, and BPI-460372 or positive control substrates (final incubation concentration, 1 μM). The incubation process started with the addition of NADPH (1 mM final concentration) after a 5-minute preincubation period. The chemical inhibitors were as follows: a-naphthoflavone (2 µM) for CYP1A2, ticlopidine (20 µM) for 2B6, quercetin (20 µM) for CYP2C8, sulfaphenazole (20 µM) for CYP2C9, ticlopidine (200 µM) for CYP2C19, quinidine (20 µM) for CYP2D6, and ketoconazole (20 µM) for CYP3A [9]. Aliquots were maintained in acetonitrile containing internal standard (IS) at various time points, such as 0 min, 5 min, 10 min, 20 min, 30 min, and 60 min. All incubations were performed in triplicate, and the concentration in the supernatant was determined by liquid chromatography-tandem mass spectrometry (LC-MS/MS).
# as §1
# [3] = in vitro; details: hepatocytes
# Description: (§2) After mixing, 20 μL of cell suspension was serially transferred into 200 μL of cold acetonitrile containing IS at the time points of 0, 5, 15, 30, 60, and 120 min, respectively.
# (§3) The metabolic stability was assessed by measuring the depletion of substrate. The half-life (t1/2), intrinsic clearance (CLint, in virto, µL·min^-1·million cells^-1), whole liver intrinsic clearance (CLint, in vivo, mL·min-1·kg^-1), and in vivo hepatic clearance (CLH, mL·min-1·kg^-1) were calculated following a reported method. In the calculation of CLH, the fraction drug unbound (Fub) was set as 1. The hepatic blood flow, liver weight, and hepatocellularity of five species were used for the calculation of CLint, in vivo [13, 14]. The hepatic extraction ratio (Eh) means the ratio of CLH to hepatic blood flow.
# [4] = system: dog hepatocytes; assay: in vitro
# Description: as §2, §3
# [5] = system: human hepatocytes; assay: in vitro
# Description: as §2, §3
# [6] = system: monkey hepatocytes; assay: in vitro
# Description: as §2, §3
# [7] = system: mouse hepatocytes; assay: in vitro
# Description: as §2, §3
# [8] = system: rat hepatocytes; assay: in vitro
# Description: as §2, §3
# [9] = Metabolite identification in dog plasma; format: in vivo, beagle dogs; details: oral 8 mg/kg BPI-460372, average of male and female pooled samples
# Description: The plasma samples were acquired from SD rats (n=6, 3 female and 3 male) and beagle dogs (n=6, 3 female and 3 male) after administration of 12 mg/kg and 8 mg/kg of BPI-460372, respectively. The rat urine, feces, and bile samples were acquired in SD rats after administration of 6 mg/kg of BPI-460372.
# Equal volume from each rat was pooled together to get 1 male and 1 female 0-24 h plasma samples. An equal percentage by volume of individual urine sample (0-8, 8-24, and 24-48 h) from 3 female and 3 male rats was pooled by time interval across rats, respectively, resulting in two pooled urine samples (1 male and 1 female). An equal percentage by weight of individual feces samples (0-8, 8-24, and 24-48 h) was pooled by time interval across female and male rats, resulting in two pooled fecal samples. An equal percentage by volume of individual bile samples (0-4, 4-8, 8-24, and 24-48 h) was pooled by time interval across female and male rats, resulting in two pooled bile samples. […] Equal volumes from 3 female and 3 male rats were pooled together to get two 0-48 h plasma samples. For blank samples of plasma, urine, and bile, equal volume was pooled across subjects. For a blank sample of feces, equal weight was pooled across rats.
# The pooled plasma, feces, and bile samples were extracted by adding 3-fold volume of acetonitrile, and the mixture was vortexed (1 min) and sonicated (1 min) before centrifugation (7220 g, 5 min). The pooled urine samples were centrifuged (7220 g, 5 min). Then the supernatant was transferred into a clean tube and evaporated to dryness under the nitrogen stream. The residues were redissolved with an appropriate volume of acetonitrile/water (20: 80, v: v). After centrifugation, the redissolved solution was transferred into an HPLC vial for UHPLC-Orbitrap-HRMS (15000 g, 10 min, 4°C).
# [10] = Stability in plasma; format: in vitro ADME; details: rat plasma, 37°C, 4 h
smiles,measurement,setting,value
C=C(F)C(=O)N1CC(n2c(=O)n(-c3ccc(C(F)(F)F)cc3)c3nccnc32)C1 [BPI-460372],Inhibition Rate,[1],-4.2%
same,Inhibition Rate,[2],9.1%
same,half-life at 1 µM,"[3]; ICR, mouse",134 min
same,half-life at 1 µM,"[3]; SD, rat",236 min
same,half-life at 1 µM,"[3]; beagle, dog",192 min
same,half-life at 1 µM,[3]; human,929 min
same,half-life at 1 µM,[3]; monkey,167 min
same,CLH,"[4]; beagle, dog, 1 µM",13.8 mL/min/kg
same,Eh,"[4]; beagle, dog, 1 µM",0.446
same,Remaining percentage after 120 min incubation,"[4]; beagle, dog, hepatocytes, 2 h, 1 µM",66.6%
same,"CLint, in virto","[4]; dog, hepatocytes",3.619 µL·min^-1·Million cells^-1
same,Clearance class from Eh,"[4]; dog, hepatocytes",moderate clearance
same,"CLint, in vivo",[4]; hepatocytes,24.9 mL/min/kg
same,"CLint, in vivo",[5]; hepatocytes,2.7 mL/min/kg
same,CLH,"[5]; human, 1 µM",2.4 mL/min/kg
same,Eh,"[5]; human, 1 µM",0.115
same,"CLint, in virto","[5]; human, hepatocytes",0.746 µL·min^-1·Million cells^-1
same,Clearance class from Eh,"[5]; human, hepatocytes",low clearance
same,Remaining percentage after 120 min incubation,"[5]; human, hepatocytes, 2 h, 1 µM",97.3%
same,CLH,"[6]; cynomolgus monkey, 1 µM",11.1 mL/min/kg
same,Eh,"[6]; cynomolgus monkey, 1 µM",0.253
same,"CLint, in vivo",[6]; hepatocytes,14.9 mL/min/kg
same,"CLint, in virto","[6]; monkey, hepatocytes",4.145 µL·min^-1·Million cells^-1
same,Clearance class from Eh,"[6]; monkey, hepatocytes",low clearance
same,Remaining percentage after 120 min incubation,"[6]; monkey, hepatocytes, 2 h, 1 µM",61.7%
same,CLH,"[7]; ICR, mouse, 1 µM",36.6 mL/min/kg
same,Eh,"[7]; ICR, mouse, 1 µM",0.406
same,Remaining percentage after 120 min incubation,"[7]; ICR, mouse, hepatocytes, 2 h, 1 µM",54.7%
same,"CLint, in vivo",[7]; hepatocytes,61.6 mL/min/kg
same,"CLint, in virto","[7]; mouse, hepatocytes",5.187 µL·min^-1·Million cells^-1
same,Clearance class from Eh,"[7]; mouse, hepatocytes",moderate clearance
same,CLH,"[8]; SD, rat, 1 µM",11.0 mL/min/kg
same,Eh,"[8]; SD, rat, 1 µM",0.200
same,Remaining percentage after 120 min incubation,"[8]; SD, rat, hepatocytes, 2 h, 1 µM",72.4%
same,"CLint, in vivo",[8]; hepatocytes,13.8 mL/min/kg
same,"CLint, in virto","[8]; rat, hepatocytes",2.941 µL·min^-1·Million cells^-1
same,Clearance class from Eh,"[8]; rat, hepatocytes",low clearance
same,"Relative abundance of MS peak areas, Dog Plasma 0-48 h",[9],30.93%
same,Stability in plasma,[10],stable
